From patent US20130064955A1, “NATURAL SWEETENED COMPOSITIONS AND METHODS FOR PREPARING THE SAME” (priority 2011, published 2013)
Entries after “also recorded” stand apart in the source; their conditions may differ.

Columns and labels:
[1] = test system: human sense of taste; assay: Sugar-like taste quality enhancement of Stevia sweeteners by steviol glycoside additives, taste test by trained individual; format: in vivo; details: for Taste change of Stevia Sweetener REBA (303 ppm) with Steviol Glycoside Additive / Taste change of Stevia Sweetener JSS (380 ppm) with Steviol Glycoside Additive / Taste change of Stevia Sweetener REBD (303 ppm) with Steviol Glycoside Additive: additive at or below its sweetness recognition threshold concentration, 5% sucrose equivalence, water, room temperature; for Taste change of Stevia Sweetener REBA (303 ppm) with Steviol Glycoside Additive: 97% pure rebaudioside A 303 ppm; for Taste change of Stevia Sweetener REBD (303 ppm) with Steviol Glycoside Additive: rebaudioside D 303 ppm; for sugar-like taste quality enhancement effect: mostly in 5% SE rebaudioside A, compared with compound 1;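 for Taste change of Stevia Sweetener JSS (380 ppm) with Steviol Glycoside Additive: code −B means less bitterness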
Description: A steviol glycoside is added in an amount at or below sweetness recognition threshold concentration to a solution of water and a Stevia sweetener. The solution is maintained at room temperature. Each sample is taste tested by a trained individual, as described in Example 1, in duplicate. Preferably no more than ten steviol glycosides are tested per day to avoid taste fatigue. Each sample was taken at least 1.5 hours following eating or drinking
The Stevia sweeteners used in this study were 97% pure rebaudioside A, JSS, and rebaudioside D.
The steviol glycosides were used in at or below sweetness recognition threshold concentrations. […]

[2] = test system: human sense of taste; assay: Determination of sweetness recognition threshold concentration by trained taste tester; format: in vivo; details: in water at room temperature; for minimal effective concentration: Homo sapiens, read-out: Sweetness recognition threshold Level
Description: The term “sweetness recognition threshold concentration,” as generally used herein, is the lowest known concentration of a sweet compound that is perceivable by the human sense of taste. The sweetness recognition threshold level is specific for a particular compound, and varies based on temperature, matrix, ingredients and/or flavor system. The sweetness recognition threshold concentrations measurements and 5% sucrose equivalence measurements described herein were determined in water at room temperature.
A sip (approximately 2-5 mL) of control sample, including but not limited to water, was tasted and swallowed by a trained taste tester. After allowing a 15-25 second interval to pass, a second sip of the control is tasted and swallowed. The taste properties of the control are determined and recorded by the trained taste tester. An unknown sample is then tasted and swallowed in the same manner, allowing a 15-25 second interval between the two sips. Preferably no more than ten additives are tested per day to avoid taste fatigue. Each sample was taken at least 1.5 hours following eating or drinking The sweetness recognition thresholds concentration of 21 steviol glycosides were determined in this manner, and are shown in Table 1.

[3] = additive at 500 ppm, all three control 5% SE Stevia sweeteners

Compound	Taste change of Stevia Sweetener REBA (303 ppm) with Steviol Glycoside Additive [1]	Taste change of Stevia Sweetener JSS (380 ppm) with Steviol Glycoside Additive [1]	Taste change of Stevia Sweetener REBD (303 ppm) with Steviol Glycoside Additive [1]	Sweetness recognition threshold Level [2]	minimal effective concentration [2]	bitterness, sweet lingering, off-taste note [1, 3]	slightly sweeter profile (increase in sucrose equivalence) [1, 3]	sugar-like tasting quality enhancement [1, 3]	Sweetness recognition threshold Level ([2]; listed as mogroside V)	sugar-like taste quality enhancement effect [1]	bitterness ([1]; additive at 85 ppm, 5% SE JSS)	modulation of Stevia sweeteners ([1]; additive at 700 ppm, all Stevia sweeteners)	off-taste note ([1]; additive at 700 ppm, with Stevia sweeteners)
rebaudioside B	N (N: no difference in presence or absence of steviol glycoside additive;)	N (N: no difference in presence or absence of steviol glycoside additive;)	N (N: no difference in presence or absence of steviol glycoside additive;)	25 ppm									
C=C1C[C@@]23CC[C@H]4[C@@](C)(CCC[C@@]4(C)C(=O)O[C@@H]4O[C@H](CO)[C@@H](O)[C@H](O)[C@H]4O)[C@@H]2CC[C@]1(O[C@@H]1O[C@H](CO)[C@@H](O)[C@H](O)[C@H]1O)C3 [Rubusoside, rubusoside]	N(+) (N(+): same as “N” but slightly more;)	N (N: no difference in presence or absence of steviol glycoside additive;)	N (N: no difference in presence or absence of steviol glycoside additive;)		50 µg/mL								
C[C@@]12CCC[C@@](C)(C(=O)O)[C@H]1CC[C@@]13C[C@@](OC4OC(CO)C(O)C(OC5OC(CO)C(O)C(O)C5O)C4OC4OC(CO)C(O)C(O)C4O)(CC[C@H]12)[C@](C)(O)C3 (stereo partly drawn) [Compound 1]	++, ASLC,; also recorded: +S, −B	++, ASLC,; also recorded: +S, −B	++, ASLC,; also recorded: +S, −B		500 µg/mL	no bitterness, sweet lingering or off-taste note	ca. 1 % SE	significantly enhanced all three control 5% SE Stevia sweeteners to a much superior sugar-like tasting quality					
C[C@H](CC[C@@H](O[C@@H]1O[C@H](CO[C@@H]2O[C@H](CO)[C@@H](O)[C@H](O)[C@H]2O)[C@@H](O)[C@H](O)[C@H]1O[C@@H]1O[C@H](CO)[C@@H](O)[C@H](O)[C@H]1O)C(C)(C)O)[C@H]1CC[C@@]2(C)[C@@H]3CC=C4[C@@H](CC[C@H](O[C@@H]5O[C@H](CO[C@@H]6O[C@H](CO)[C@@H](O)[C@H](O)[C@H]6O)[C@@H](O)[C@H](O)[C@H]5O)C4(C)C)[C@]3(C)[C@H](O)C[C@]12C [Mogroside V, mogroside V]	N (N: no difference in presence or absence of steviol glycoside additive;)	N (N: no difference in presence or absence of steviol glycoside additive;)	~+S (~+S: Slightly more detected sweetness intensity (~0.5% Sucrose Equivalence);)	20 ppm					about 15 ppm				
CC1=C[C@@]23CC[C@H]4[C@@](C)(CCC[C@@]4(C)C(=O)O)[C@@H]2CC[C@]1(OC1OC(CO)C(O)C(OC2OC(CO)C(O)C(O)C2O)C1OC1OC(CO)C(O)C(O)C1O)C3 (stereo partly drawn) [Compound 2]	++, −SL, −B	DB (DB: Different pattern of bitterness;)	N(+), W		35 µg/mL					similar, but smaller positive sugar-like taste quality enhancement effect			
C=C1C[C@@]23CC[C@H]4[C@@](C)(CCC[C@@]4(C)C(=O)OC4OC(C(=O)O)C(O)C(O)C4O)[C@@H]2CC[C@]1(O)C3 (stereo partly drawn) [Steviol glucuronide, steviol glucoronide]	N (N: no difference in presence or absence of steviol glycoside additive;)	−B	N (N: no difference in presence or absence of steviol glycoside additive;)		85 µg/mL						less bitterness		
C=C1C[C@@]23CC[C@H]4[C@@](C)(CCC[C@@]4(C)C(=O)O)[C@@H]2CC[C@]1(O[C@@H]1O[C@H](CO)[C@@H](O)[C@H](O)[C@H]1O[C@@H]1O[C@H](CO)[C@@H](O)[C@H](O)[C@H]1O)C3 [Steviolbioside, steviolbioside]	N (N: no difference in presence or absence of steviol glycoside additive;)	N (N: no difference in presence or absence of steviol glycoside additive;)	N (N: no difference in presence or absence of steviol glycoside additive;)	50 ppm									
C[C@@]12CCC[C@@](C)(C(=O)OC3OC(CO)C(O)C(O)C3O)[C@H]1CC[C@@]13C[C@@](OC4OC(CO)C(O)C(OC5OC(CO)C(O)C(O)C5O)C4OC4OC(CO)C(O)C(O)C4O)(CC[C@H]12)[C@](C)(O)C3 (stereo partly drawn) [Compound 3]	+, −B, −SL, OF	−B, OF	+, −SL, OF		700 µg/mL					similar, but smaller positive sugar-like taste quality enhancement effect		positive modulation of all Stevia sweeteners	weak chemical-like note
C=C1C[C@@]23CC[C@H]4[C@@](C)(CCC[C@@]4(C)C(=O)O[C@@H]4O[C@H](CO)[C@@H](O)[C@H](O)[C@H]4O)[C@@H]2CC[C@]1(O[C@@H]1O[C@H](CO)[C@@H](O)[C@H](O)[C@H]1O[C@@H]1O[C@H](CO)[C@@H](O)[C@H](O)[C@H]1O)C3 [Stevioside, stevioside]	N (N: no difference in presence or absence of steviol glycoside additive;)		N (N: no difference in presence or absence of steviol glycoside additive;)		25 µg/mL								
C=C1C[C@@]23CC[C@H]4[C@@](C)(CCC[C@@]4(C)C(=O)O[C@@H]4O[C@H](CO)[C@@H](O)[C@H](O)[C@H]4O)[C@@H]2CC[C@]1(O[C@@H]1O[C@H](CO)[C@@H](O)[C@H](O)[C@H]1O[C@@H]1O[C@@H](C)[C@H](O)[C@@H](O)[C@H]1O)C3 [Dulcoside A, dulcoside A]	N (N: no difference in presence or absence of steviol glycoside additive;)	N (N: no difference in presence or absence of steviol glycoside additive;)	N (N: no difference in presence or absence of steviol glycoside additive;)	50 ppm									
CC1=C[C@@]23CC[C@H]4[C@@](C)(CCC[C@@]4(C)C(=O)OC4OC(CO)C(O)C(O)C4O)[C@@H]2CC[C@]1(OC1OC(CO)C(O)C(OC2OC(CO)C(O)C(O)C2O)C1OC1OC(CO)C(O)C(O)C1O)C3 (stereo partly drawn) [Compound 4]	N (N: no difference in presence or absence of steviol glycoside additive;)	N (N: no difference in presence or absence of steviol glycoside additive;)	N (N: no difference in presence or absence of steviol glycoside additive;)		25 µg/mL								
rebaudioside F	N (N: no difference in presence or absence of steviol glycoside additive;)	N (N: no difference in presence or absence of steviol glycoside additive;)	N (N: no difference in presence or absence of steviol glycoside additive;)	25 ppm									
rebaudioside C	N (N: no difference in presence or absence of steviol glycoside additive;)	N (N: no difference in presence or absence of steviol glycoside additive;)	N (N: no difference in presence or absence of steviol glycoside additive;)	100 ppm									
